target: CDK2 (human) (UniProt P24941); experiment: Enzyme Assay

IC50 [nM] | SMILES
< 500 | Cc1cc(C(=O)N2CCC(COc3cccc(NC(=O)Nc4csc(-c5ccncc5)n4)n3)C2)n(C(C)(C)C)n1 (centres undefined)
< 500 | CCN1CCN(c2cccc(NC(=O)Nc3csc(-c4ccccc4)n3)n2)CC1
< 500 | COc1cc(-c2nc(NC(=O)Nc3cccc(CN4CCCCC4)n3)cs2)ccn1
< 500 | CC1CCCN(Cc2cccc(NC(=O)Nc3csc(-c4ccccc4)n3)n2)C1 (centres undefined)
< 500 | CN1CCC[C@H]1COc1cccc(NC(=O)Nc2csc(-c3ccccc3)n2)n1
< 500 | O=C(Nc1cccc(OCCC2CCNCC2)n1)Nc1csc(C2CC2)n1
< 500 | CC1CCCN(Cc2cccc(NC(=O)Nc3csc(Cl)n3)n2)C1 (centres undefined)
< 500 | CN1CC(COc2cccc(NC(=O)Nc3csc(-c4ccccc4)n3)n2)C1
< 500 | CN1CCC[C@@H]1COc1cccc(NC(=O)Nc2csc(-c3ccncc3)n2)n1
< 500 | CC1CCCC(C)N1Cc1cccc(NC(=O)Nc2csc(-c3ccncc3)n2)n1 (centres undefined)
< 500 | O=C(Nc1cccc(OCC2CCOC2)n1)Nc1csc(-c2ccncc2)n1 (centres undefined)
< 500 | O=C(Nc1cccc(N2CCN(c3ncccn3)CC2)n1)Nc1csc(-c2ccccc2)n1
< 500 | O=C(Nc1cccc(OCC2CNC2)n1)Nc1csc(Br)n1
< 500 | O=C(Nc1cccc(OCC2CCNCC2)n1)Nc1csc(-c2ccccc2)n1
< 500 | O=C(Nc1cccc(OCCC2CCNCC2)n1)Nc1csc(-c2cccs2)n1
< 500 | O=C(Nc1cccc(OCC2CNC2)n1)Nc1csc(Cl)n1
< 500 | CC(C)NCc1cccc(NC(=O)Nc2csc(-c3ncc(C(C)(C)C)o3)n2)n1
< 500 | CN1CCC[C@H]1COc1cccc(NC(=O)Nc2csc(CS(=O)(=O)c3cccs3)n2)n1
< 500 | CN1CCC(COc2cccc(NC(=O)Nc3csc(-c4ccncc4)n3)n2)CC1
< 500 | O=C(Nc1cccc(NCCCO)n1)Nc1csc(-c2ccncc2)n1
< 500 | CC(C)N(Cc1cccc(NC(=O)Nc2csc(Br)n2)n1)C(=O)OC(C)(C)C
< 500 | CCN(CC)C(=O)c1cccc(NC(=O)Nc2csc(-c3ccccc3)n2)n1

IC50 [nM] | SMILES
< 500 | O=C(Nc1cccc(OCC2CCNCC2)n1)Nc1csc(Br)n1
< 500 | CC(C)(C)OC(=O)N1CCCCC1CNc1cccc(NC(=O)Nc2csc(-c3ccncc3)n2)n1 (centres undefined)
< 500 | CN1CCC(c2cccc(NC(=O)Nc3csc(-c4ccncc4)n3)n2)CC1
< 500 | O=C(Nc1cc(CN2CCCCC2)ccn1)Nc1csc(-c2ccccc2)n1
< 500 | CN1CCC(c2cccc(NC(=O)Nc3csc(-c4ccccc4)n3)n2)CC1
< 500 | CCN(CC)Cc1ccnc(NC(=O)Nc2csc(-c3ccncc3)n2)c1
< 500 | O=C(Nc1cccc(OCC2CCNCC2)n1)Nc1csc(-c2ccncc2)n1
< 500 | O=C(Nc1cccc(Oc2ccc(CN3CCCC3)cc2)n1)Nc1csc(-c2ccccc2)n1
< 500 | O=C(Nc1cccc(Oc2ccc(CN3CCCC3)cc2)n1)Nc1csc(Br)n1
< 500 | CC(C)(C)OC(=O)N1CCC(CCOc2cccc(NC(=O)Nc3csc(-c4ccccc4)n3)n2)CC1
< 500 | CC(C)(C)OC(=O)N1CC=C(c2cccc(NC(=O)Nc3csc(-c4ccncc4)n3)n2)CC1
< 500 | CN1CCC(COc2cccc(NC(=O)Nc3csc(-c4ccccc4)n3)n2)CC1
< 500 | CC(C)N(Cc1cccc(NC(=O)Nc2csc(Cl)n2)n1)C(=O)OC(C)(C)C
< 500 | O=C(Nc1cccc(OCCC2CCNCC2)n1)Nc1csc(-c2ccccc2)n1
< 500 | CC(C)NCc1cccc(NC(=O)Nc2csc(Cl)n2)n1
< 500 | O=C(Nc1cccc(OCC2CCNCC2)n1)Nc1csc(Cl)n1
< 500 | CCN(CC)C(=O)c1ccnc(NC(=O)Nc2csc(-c3ccncc3)n2)c1
< 500 | O=C(Nc1cccc(CN2CCCC2)n1)Nc1csc(-c2ccccc2)n1
< 500 | O=C(Nc1cccc(OCC2CCNC2)n1)Nc1csc(-c2ccncc2)n1 (centres undefined)
< 500 | O=C(Nc1cccc(OCC2CNC2)n1)Nc1csc(-c2ccccc2)n1
< 500 | CN1CC(COc2cccc(NC(=O)Nc3csc(-c4ccncc4)n3)n2)C1
< 500 | O=C(Nc1cccc(OCCC2CCNCC2)n1)Nc1csc(Br)n1

IC50 [nM] | SMILES
< 500 | CC(C)(C)OC(=O)N1CCC[C@@H]1COc1cccc(NC(=O)Nc2csc(-c3ccncc3)n2)n1
< 500 | C[C@@H]1CCCN(Cc2cccc(NC(=O)Nc3csc(-c4ccncc4)n3)n2)C1
< 500 | CC(C)(C)OC(=O)N1CC(COc2cccc(NC(=O)Nc3csc(-c4ccccc4)n3)n2)C1
< 500 | O=C(Nc1cccc(OCC2CCCO2)n1)Nc1csc(-c2ccncc2)n1 (centres undefined)
< 500 | CC1CCCN(Cc2cccc(NC(=O)Nc3csc(Br)n3)n2)C1 (centres undefined)
< 500 | CC(c1cccc(NC(=O)Nc2csc(-c3ccncc3)n2)n1)N1CCCCC1 (centres undefined)
< 500 | CC(C)(C)OC(=O)N1CCC(COc2cccc(NC(=O)Nc3csc(-c4ccncc4)n3)n2)C1 (centres undefined)
< 500 | O=C(Nc1cccc(OCCC2CCNCC2)n1)Nc1csc(Cl)n1
< 500 | O=C(Nc1csc(-c2ccncc2)n1)Nc1ncccn1
< 500 | O=C(Nc1cccc(NCC2CCCCN2)n1)Nc1csc(-c2ccncc2)n1 (centres undefined)
< 500 | C[C@H]1CCCN(Cc2cccc(NC(=O)Nc3csc(-c4ccncc4)n3)n2)C1
< 500 | O=C(Nc1cc(C(=O)N2CCCCC2)ccn1)Nc1csc(-c2ccccc2)n1
< 500 | CC(C)(C)c1cnc(-c2nc(NC(=O)Nc3cccc(OCCC4CCNCC4)n3)cs2)o1
< 500 | O=C(Nc1cccc(NCCCO)n1)Nc1csc(Br)n1
< 500 | CN1CCC[C@H]1COc1cccc(NC(=O)Nc2csc(-c3cccc(S(N)(=O)=O)c3)n2)n1
< 500 | CC(C)(C)OC(=O)N1CCC(COc2cccc(NC(=O)Nc3csc(-c4ccncc4)n3)n2)CC1
< 500 | O=C(Nc1cc(C(=O)N2CCCCC2)ccn1)Nc1csc(Br)n1
< 500 | Cn1cccc1C(=O)N1CCC(COc2cccc(NC(=O)Nc3csc(-c4ccncc4)n3)n2)C1 (centres undefined)
< 500 | O=C(Nc1cccc(CN2CCCCC2)n1)Nc1csc(Cl)n1
< 500 | CC(C)NCc1cccc(NC(=O)Nc2csc(-c3ccccc3)n2)n1
< 500 | O=C(Nc1cc(C(=O)N2CCCCC2)ccn1)Nc1csc(-c2ccncc2)n1

SMILES | IC50 [nM]
CN1CC=C(c2cccc(NC(=O)Nc3csc(Br)n3)n2)CC1 | < 500
CN1CC=C(c2cccc(NC(=O)Nc3csc(-c4ccccc4)n3)n2)CC1 | < 500
CN1CC=C(c2cccc(NC(=O)Nc3csc(-c4ccncc4)n3)n2)CC1 | < 500
O=C(Nc1cccc(C2=CCNCC2)n1)Nc1csc(-c2ccncc2)n1 | < 500
